Patent publication US8354416B2 (Glaxo Group Limited, priority 2005, dated 2013)

tested on: influx of neutrophils to the lung in LPS-challenged rats; test: Rat LPS neutrophilia model; type: in vivo; details: intratracheal, LPS aerosol 100 ug/ml, in at least one of the range of conditions tested, significance p<0.05
Protocol: Rat LPS Neutrophilia Model
The effect of compounds on the influx of neutrophils to the lung in LPS-challenged rats is evaluated as follows. The test compound is suspended in one of the following solutions: 0.5% tween 80/PBS, 0.5% tween 80/saline, 10% EtOH/saline (with pH adjusted to 2.0, or 8.0 with HCl, or unadjusted), Saline (pH 2.0, 6.5 or 8.0, 0.5% Tragacanth, 1% DMSO/20% Encapsin/Saline, or acidified 5% Tragacanth. The suspension process may be aided by the use of a glass homogenizer. For intratracheal administration, the animals are anesthetized with inhaled isoflurane and placed in a supine position, the trachea is intubated with a steel gavage needle (1.5 inch, 22 gauge, small ball) or a Penn-Century Microsprayer Aerosolizer (model IA-1B) and 200 ul of dosing solution is delivered. The animals are visually monitored during the recovery process, which typically occurs within two minutes. It is noted that the test compounds may be alternatively administered via the microsprayer in a dry powder blend with a suitable excipient, such as lactose.
Rats treated with compound or vehicle (15 min-24 hours pretreatment) are exposed to an LPS aerosol (100 ug/ml) for 15 min. Four hours later the rats are euthanized with pentobarbital (100 mg/kg, i.p.) and the airways are lavaged with 5 washes of 5 ml of phosphate buffered saline. The harvested cells are stained (Diffquick) and counted to determine total and differential cell data. […] Inhibition of neutrophil levels relative to no compound controls is calculated based on the differential counts.
The data is obtained as % inhibition using a particular concentration and pretreat time.

Structure (SMILES)	inhibition of neutrophilia (neutrophil levels in airway lavage relative to no compound controls)
Cc1ccc(C(=O)Nc2ccc(F)cc2)cc1-c1nc(NCCN(C)C)nc2c1ccc(=O)n2-c1c(F)cccc1F [Example 112, 3-(8-(2,6-difluorophenyl)-2-{[2-(dimethylamino)ethyl]amino}-7-oxo-7,8-dihydropyrido[2,3-d]pyrimidin-4-yl)-N-(4-fluorophenyl)-4-methylbenzamide]	statistically nonsignificant inhibition of neutrophilia
Cc1ccc(C(=O)Nc2ccc(F)cc2)cc1-c1nc(N(C)CCCN(C)C)nc2c1ccc(=O)n2-c1c(F)cccc1F [Example 115, 3-{8-(2,6-difluorophenyl)-2-[[3-(dimethylamino)propyl](methyl)amino]-7-oxo-7,8-dihydropyrido[2,3-d]pyrimidin-4-yl}-N-(4-fluorophenyl)-4-methylbenzamide]	statistically nonsignificant inhibition of neutrophilia
Cc1ccc(C(=O)NC(C)C)cc1-c1nc(NCCN(C)C)nc2c1ccc(=O)n2-c1c(F)cccc1F [Example 117, 3-(8-(2,6-difluorophenyl)-2-{[2-(dimethylamino)ethyl]amino}-7-oxo-7,8-dihydropyrido[2,3-d]pyrimidin-4-yl)-4-methyl-N-(1-methylethyl)benzamide]	statistically significant inhibition of neutrophilia
CCN(CC)CCCNc1nc(-c2cc(C(=O)NC)ccc2C)c2ccc(=O)n(-c3c(F)cccc3F)c2n1 [Example 119, 3-[2-{[3-(diethylamino)propyl]amino}-8-(2,6-difluorophenyl)-7-oxo-7,8-dihydropyrido[2,3-d]pyrimidin-4-yl]-N,4-dimethylbenzamide]	statistically significant inhibition of neutrophilia
CCN(CC)CCCNc1nc(-c2cc(C(=O)N[C@H](C)C(C)C)ccc2C)c2ccc(=O)n(-c3c(F)cccc3F)c2n1 [Example 130]	statistically nonsignificant inhibition of neutrophilia
CCN(CC)CCCNc1nc(-c2cc(C(=O)NCC3CCCC3)ccc2C)c2ccc(=O)n(-c3c(F)cccc3F)c2n1 [Example 132, N-(cyclopentylmethyl)-3-[2-{[3-(diethylamino)propyl]amino}-8-(2,6-difluorophenyl)-7-oxo-7,8-dihydropyrido[2,3-d]pyrimidin-4-yl]-4-methylbenzamidetrifluoroacetate]	statistically nonsignificant inhibition of neutrophilia
CCN(CC)CCCNc1nc(-c2cc(C(=O)NCCF)ccc2C)c2ccc(=O)n(-c3c(F)cccc3F)c2n1 [Example 133, 3-[2-{[3-(diethylamino)propyl]amino}-8-(2,6-difluorophenyl)-7-oxo-7,8-dihydropyrido[2,3-d]pyrimidin-4-yl]-N-(2-fluoroethyl)-4-methylbenzamidetrifluoroacetate]	statistically significant inhibition of neutrophilia
CCN(CC)CCCNc1nc(-c2cc(C(=O)NCCOC)ccc2C)c2ccc(=O)n(-c3c(F)cccc3F)c2n1 [Example 134, 3-[2-{[3-(diethylamino)propyl]amino}-8-(2,6-difluorophenyl)-7-oxo-7,8-dihydropyrido[2,3-d]pyrimidin-4-yl]-4-methyl-N-[2-(methyloxy)ethyl]benzamidetrifluoroacetate]	statistically nonsignificant inhibition of neutrophilia
CCN(CC)CCCNc1nc(-c2cc(C(=O)NCC3CCCCC3)ccc2C)c2ccc(=O)n(-c3c(F)cccc3F)c2n1 [Example 135, N-(cyclohexylmethyl)-3-[2-{[3-(diethylamino)propyl]amino}-8-(2,6-difluorophenyl)-7-oxo-7,8-dihydropyrido[2,3-d]pyrimidin-4-yl]-4-methylbenzamidetrifluoroacetate]	inactive
